Details of series [1]: species or system human (subjects with type 1 diabetes mellitus). The settings on record: human, in vivo, sc. As to the method:
The study was conducted in subjects with type 1 diabetes mellitus. This study was conducted to determine if a formulation for pulmonary delivery comprising insulin and a diketopiperazine in the formulation, 1) could be delivered consistently using different dosage strengths and 2) if linearity of dosing could be achieved with proportional doses, given that interchangeability of dosage strengths can be important for patient safety. […] Therefore, an important goal in the development of the pulmonary delivery system with a formulation comprising insulin and FDKP (insulin-FDKP) was to achieve dose linearity across the therapeutic dose range.
In the study, comparisons of insulin exposure following inhalation of two 15 U cartridges of an insulin inhalation powder to one 30 U cartridge of insulin inhalation powder were made. In addition, insulin bioavailability from a 30 U cartridge of insulin-FDKP inhalation powder was calculated, compared to a 10-IU subcutaneous (sc) injection of insulin lispro (rapid acting analogue [RAA]).
A phase I, open-label, single-dose, repeat administration study in subjects with type 1 diabetes (T1DM) was conducted to assess the pharmacokinetic profile or PK of 30 U of insulin-FDKP dosed as a single 30 U cartridge and compared to two 15 U cartridges administered with the present inhalation system. […]

A short description of series [2]: Baseline-corrected glucose infusion rate (GIR) evaluation under hyperinsulinemic-euglycemic clamp. Format: in vivo, human (subjects with type 1 diabetes mellitus). As to conditions: 10 IU sc RAA. The protocol:
A phase I, open-label, single-dose, repeat administration study in subjects with type 1 diabetes (T1DM) was conducted to assess the pharmacokinetic profile or PK of 30 U of insulin-FDKP dosed as a single 30 U cartridge and compared to two 15 U cartridges administered with the present inhalation system. A 10 U subcutaneous injection of the rapid acting insulin analogue (RAA, HUMALOG® (Eli Lilly and Company, Indianapolis, IN)) was also tested. Subjects (age: 19-61 yrs) were randomized to 1 of 6 sequences. Fasted subjects received insulin-FDKP or RAA 4 to 6 hrs after initiating a hyperinsulinemic-euglycemic clamp. Randomization determined the order of insulin-FDKP dosing (first 2 treatment (tx) visits), and the location of the RAA injection (abdomen, arm or leg; 3rd tx visit). After dosing blood samples were taken and analyzed for insulin, insulin lispro and fumaryl diketopiperazine (FDKP (insulin-FDKP tx only)). When studying insulin-FDKP, the basal insulin infusion was performed with HUMALOG®, and when studying HUMALOG®, regular human insulin was used. The analytical methodologies enabled the independent measurement of each insulin tested.
This study also evaluated the effects of the dosages administered and the glucose infusion rate (GIR) requirements of the patients in the study. FIG. 19 illustrates the results of the GIR evaluation. […]

The results in this text go back to patent publication US12582784B2, “Dry powder inhalation system” (MannKind Corporation, priority 2008, dated 2026).

As for insulin lispro [Humalog], the “Insulin PK parameters tmax” value in series [1] came to 1 h. In series [2], the “time after administration at which GIR peaked” value is “approximately 150 minutes” and the “time at which GIR returned toward baseline” value is about 300 min.
